Test results as given in patent US20070128217A1 (priority 2003, published 2007).

What was measured:
[1] = test system: control sera (pooled serum of ten healthy LUMC hospital workers; commercial negative donor pooled serum from the Dutch bloodbank); assay type: binding, human; design: Binding of Control serum LUMC to linear peptides / Binding of Control serum Blood-bank to linear peptides / Binding of Control serum LUMC to looped peptides / Binding of Control Serum Blood-Bank to Looped peptides / Binding of Control serum LUMC to linear peptides of the protein M of SARS-CoV Urbani / Binding of Control serum Blood-bank to linear peptides of the protein M of SARS-CoV Urbani / Binding of Control serum LUMC to looped peptides of the protein M of SARS-CoV Urbani / Binding of Control Serum Blood-Bank to Looped peptides of the protein M of SARS-CoV Urbani: unit not given here
[2] = test system: antibodies in sera from SARS patients (sera 1a, 1b, 2, 6, 37, 62, London, SARS-yellow, SARS-green); assay type: binding, human; design: Binding of serum 6 to linear peptides of protein X1 of SARS-CoV Urbani / Binding of serum 37 to linear peptides of protein X1 of SARS-CoV Urbani / Binding of serum 6 to looped/cyclic peptide (PEPSCAN-ELISA) / Binding of serum 37 to looped/cyclic peptide (PEPSCAN-ELISA) / Binding of serum 37 to looped/cyclic peptides of protein X1 of SARS-CoV Urbani / Binding of serum 6 to linear peptides of protein X2 / Binding of serum 37 to linear peptides of protein X2 / Binding of serum 37 to looped/cyclic peptides of protein X2 of SARS-CoV Urbani / Binding of serum 6 to linear peptides of protein M of SARS-CoV Urbani / Binding of serum 37 to linear peptides of protein M of SARS-CoV Urbani / Binding of serum 6 to looped/cyclic peptides of protein M of SARS-CoV Urbani / Binding of serum 37 to looped/cyclic peptides of protein M of SARS-CoV Urbani / Binding of serum 6 to linear peptides of protein X3 of SARS-CoV Urbani / Binding of serum 37 to linear peptides of protein X3 of SARS-CoV Urbani / Binding of serum 37 to looped/cyclic peptides of protein X3 of SARS-CoV Urbani / Binding of serum 6 to linear peptides of protein X4 of SARS-CoV Urbani / Binding of serum 37 to linear peptides of protein X4 of SARS-CoV Urbani / Binding of serum 37 to looped/cyclic peptides of protein X4 of SARS-CoV Urbani / Binding of serum 6 to linear peptides of protein X5 of SARS-CoV Urbani / Binding of serum 37 to linear peptides of protein X5 of SARS-CoV Urbani / Binding of serum 37 to looped/cyclic peptides of protein X5 of SARS-CoV Urbani / Binding of serum 6 to linear peptides of protein N of SARS-CoV Urbani / Binding of serum 37 to linear peptides of protein N of SARS-CoV Urbani / Binding of serum 6 to linear peptide (PEPSCAN-ELISA) / Binding of serum 1a to looped/cyclic peptides of protein N of SARS-CoV Urbani / Binding of serum 1b to looped/cyclic peptides of protein N of SARS-CoV Urbani / Binding of serum 2 to looped/cyclic peptides of protein N of SARS-CoV Urbani / Binding of serum 6 to looped/cyclic peptides of protein N of SARS-CoV Urbani / Binding of serum 37 to looped/cyclic peptides of protein N of SARS-CoV Urbani / Binding of serum 62 to looped/cyclic peptides of protein N of SARS-CoV Urbani / Binding of serum London to looped/cyclic peptides of protein N of SARS-CoV Urbani / Binding of serum SARS-green to looped/cyclic peptides of protein N of SARS-CoV Urbani: unit not given here

## FICNLLLLFVTTYSH
[1]
  Binding of Control Serum Blood-Bank to Looped peptides: 0.5
  Binding of Control serum Blood-bank to linear peptides: 0.6
  Binding of Control serum LUMC to linear peptides: 0.5
  Binding of Control serum LUMC to looped peptides: 0.5

## GHPLGRCDIKDLPKE
[1]
  Binding of Control Serum Blood-Bank to Looped peptides of the protein M of SARS-CoV Urbani: 0.7
  Binding of Control serum Blood-bank to linear peptides of the protein M of SARS-CoV Urbani: 0.6
  Binding of Control serum LUMC to linear peptides of the protein M of SARS-CoV Urbani: 0.6
  Binding of Control serum LUMC to looped peptides of the protein M of SARS-CoV Urbani: 0.7

## IAMACIVGLMWLSYF
[2]
  Binding of serum 1a to linear peptides of protein M of SARS-CoV Urbani: 0.6
  Binding of serum 1a to looped/cyclic peptides of protein M of SARS-CoV Urbani: 0.6
  Binding of serum 1b to linear peptides of protein M of SARS-CoV Urbani: 0.5
  Binding of serum 1b to looped/cyclic peptides of protein M of SARS-CoV Urbani: 0.4
  Binding of serum 2 to linear peptides of protein M of SARS-CoV Urbani: 0.4
  Binding of serum 2 to looped/cyclic peptides of protein M of SARS-CoV Urbani: 0.4
  Binding of serum 6 to linear peptides of protein M of SARS-CoV Urbani: 0.3
  Binding of serum 6 to looped/cyclic peptides of protein M of SARS-CoV Urbani: 0.7
  Binding of serum 37 to linear peptides of protein M of SARS-CoV Urbani: 0.3
  Binding of serum 37 to looped/cyclic peptides of protein M of SARS-CoV Urbani: 0.4
  Binding of serum 62 to linear peptides of protein M of SARS-CoV Urbani: 0.3
  Binding of serum 62 to looped/cyclic peptides of protein M of SARS-CoV Urbani: 0.4
  Binding of serum London to linear peptides of protein M of SARS-CoV Urbani: 0.3
  Binding of serum London to looped/cyclic peptides of protein M of SARS-CoV Urbani: 0.2
  Binding of serum SARS-green to linear peptides of protein M of SARS-CoV Urbani: 0.3
  Binding of serum SARS-green to looped/cyclic peptides of protein M of SARS-CoV Urbani: 0.3
  Binding of serum SARS-yellow to linear peptides of protein M of SARS-CoV Urbani: 0.2
  Binding of serum SARS-yellow to looped/cyclic peptides of protein M of SARS-CoV Urbani: 0.6
[1]
  Binding of Control Serum Blood-Bank to Looped peptides of the protein M of SARS-CoV Urbani: 0.6
  Binding of Control serum Blood-bank to linear peptides of the protein M of SARS-CoV Urbani: 0.5
  Binding of Control serum LUMC to linear peptides of the protein M of SARS-CoV Urbani: 0.6
  Binding of Control serum LUMC to looped peptides of the protein M of SARS-CoV Urbani: 0.7

## IGVAFLAVPQSATKI
[1]
  Binding of Control Serum Blood-Bank to Looped peptides: 0.5
  Binding of Control serum Blood-bank to linear peptides: 0.8
  Binding of Control serum LUMC to linear peptides: 0.8
  Binding of Control serum LUMC to looped peptides: 0.5

## MVQTGTPNVTINCQD
[1]
  Binding of Control Serum Blood-Bank to Looped peptides: 0.3
  Binding of Control serum Blood-bank to linear peptides: 0.8
  Binding of Control serum LUMC to linear peptides: 0.6
  Binding of Control serum LUMC to looped peptides: 0.3

## RCWLGWKCKSKNPLL
[1]
  Binding of Control Serum Blood-Bank to Looped peptides: 0.7
  Binding of Control serum Blood-bank to linear peptides: 1.2
  Binding of Control serum LUMC to linear peptides: 1.0
  Binding of Control serum LUMC to looped peptides: 0.7

## SLTSLLKTHRMCKYT
[2]
  Binding of serum 1a to linear peptides of protein X2: 0.8
  Binding of serum 1a to looped/cyclic peptides of protein X2 of SARS-CoV Urbani: 0.3
  Binding of serum 1b to linear peptides of protein X2: 0.4
  Binding of serum 1b to looped/cyclic peptides of protein X2 of SARS-CoV Urbani: 0.3
  Binding of serum 2 to linear peptides of protein X2: 0.4
  Binding of serum 2 to looped/cyclic peptides of protein X2 of SARS-CoV Urbani: 0.1
  Binding of serum 6 to linear peptides of protein X2: 0.4
  Binding of serum 6 to looped/cyclic peptides of protein X2 of SARS-CoV Urbani: 0.2
  Binding of serum 37 to linear peptides of protein X2: 0.3
  Binding of serum 37 to looped/cyclic peptides of protein X2 of SARS-CoV Urbani: 0.2
  Binding of serum 62 to linear peptides of protein X2: 0.7
  Binding of serum 62 to looped/cyclic peptides of protein X2 of SARS-CoV Urbani: 0.4
  Binding of serum London to linear peptides of protein X2: 0.4
  Binding of serum London to looped/cyclic peptides of protein X2 of SARS-CoV Urbani: 0.2
  Binding of serum SARS-green to linear peptides of protein X2: 0.5
  Binding of serum SARS-green to looped/cyclic peptides of protein X2 of SARS-CoV Urbani: 0.2
  Binding of serum SARS-yellow to linear peptides of protein X2: 0.3
  Binding of serum SARS-yellow to looped/cyclic peptides of protein X2 of SARS-CoV Urbani: 0.3

## TGTLIVNSVLLPLAF
[2]
  Binding of serum 1a to linear peptides of protein E of SARS-CoV Urbani: 0.7
  Binding of serum 1b to linear peptides of protein E of SARS-CoV Urbani: 0.5
  Binding of serum 2 to linear peptides of protein E of SARS-CoV Urbani: 0.3
  Binding of serum 6 to linear peptides of protein E of SARS-CoV Urbani: 0.6
  Binding of serum 37 to linear peptides of protein E of SARS-CoV Urbani: 0.7
  Binding of serum 62 to linear peptides of protein E of SARS-CoV Urbani: 0.6
  Binding of serum London to linear peptides of protein E of SARS-CoV Urbani: 0.4
  Binding of serum SARS-green to linear peptides of protein E of SARS-CoV Urbani: 0.4
  Binding of serum SARS-yellow to linear peptides of protein E of SARS-CoV Urbani: 0.2

## TTVYHTTVSQIQLSL
[1]
  Binding of Control Serum Blood-Bank to Looped peptides: 0.6
  Binding of Control serum Blood-bank to linear peptides: 0.6
  Binding of Control serum LUMC to linear peptides: 0.7
  Binding of Control serum LUMC to looped peptides: 0.5
